Measurements published in patent US20070128217A1 (priority 2003, published 2007).

How the values were obtained:
[1] = test system: antibodies in sera from SARS patients (sera 1a, 1b, 2, 6, 37, 62, London, SARS-yellow, SARS-green); assay type: binding, human; design: Binding of serum 6 to linear peptides of protein X1 of SARS-CoV Urbani / Binding of serum 37 to linear peptides of protein X1 of SARS-CoV Urbani / Binding of serum 6 to looped/cyclic peptide (PEPSCAN-ELISA) / Binding of serum 37 to looped/cyclic peptide (PEPSCAN-ELISA) / Binding of serum 37 to looped/cyclic peptides of protein X1 of SARS-CoV Urbani / Binding of serum 6 to linear peptides of protein X2 / Binding of serum 37 to linear peptides of protein X2 / Binding of serum 37 to looped/cyclic peptides of protein X2 of SARS-CoV Urbani / Binding of serum 6 to linear peptides of protein M of SARS-CoV Urbani / Binding of serum 37 to linear peptides of protein M of SARS-CoV Urbani / Binding of serum 6 to looped/cyclic peptides of protein M of SARS-CoV Urbani / Binding of serum 37 to looped/cyclic peptides of protein M of SARS-CoV Urbani / Binding of serum 6 to linear peptides of protein X3 of SARS-CoV Urbani / Binding of serum 37 to linear peptides of protein X3 of SARS-CoV Urbani / Binding of serum 37 to looped/cyclic peptides of protein X3 of SARS-CoV Urbani / Binding of serum 6 to linear peptides of protein X4 of SARS-CoV Urbani / Binding of serum 37 to linear peptides of protein X4 of SARS-CoV Urbani / Binding of serum 37 to looped/cyclic peptides of protein X4 of SARS-CoV Urbani / Binding of serum 6 to linear peptides of protein X5 of SARS-CoV Urbani / Binding of serum 37 to linear peptides of protein X5 of SARS-CoV Urbani / Binding of serum 37 to looped/cyclic peptides of protein X5 of SARS-CoV Urbani / Binding of serum 6 to linear peptides of protein N of SARS-CoV Urbani / Binding of serum 37 to linear peptides of protein N of SARS-CoV Urbani / Binding of serum 6 to linear peptide (PEPSCAN-ELISA) / Binding of serum 1a to looped/cyclic peptides of protein N of SARS-CoV Urbani / Binding of serum 1b to looped/cyclic peptides of protein N of SARS-CoV Urbani / Binding of serum 2 to looped/cyclic peptides of protein N of SARS-CoV Urbani / Binding of serum 6 to looped/cyclic peptides of protein N of SARS-CoV Urbani / Binding of serum 37 to looped/cyclic peptides of protein N of SARS-CoV Urbani / Binding of serum 62 to looped/cyclic peptides of protein N of SARS-CoV Urbani / Binding of serum London to looped/cyclic peptides of protein N of SARS-CoV Urbani / Binding of serum SARS-green to looped/cyclic peptides of protein N of SARS-CoV Urbani: unit not given here
[2] = test system: rabbit serum obtained by immunizing a rabbit with the SARS-CoV strain Frankfurt 1; assay type: binding; design: Binding of a rabbit serum to linear peptides / Binding of a rabbit serum to looped peptides / Rabbit serum linear peptides / Rabbit serum looped peptides / Binding of a rabbit serum to linear peptides of protein N of SARS-CoV Urbani (Rabbit serum linear peptides) / Binding of a rabbit serum to looped/cyclic peptides of protein N of SARS-CoV Urbani (Rabbit serum looped peptides): unit not given here
[3] = test system: control sera (pooled serum of ten healthy LUMC hospital workers; commercial negative donor pooled serum from the Dutch bloodbank); assay type: binding, human; design: Binding of Control serum LUMC to linear peptides / Binding of Control serum Blood-bank to linear peptides / Binding of Control serum LUMC to looped peptides / Binding of Control Serum Blood-Bank to Looped peptides / Binding of Control serum LUMC to linear peptides of the protein M of SARS-CoV Urbani / Binding of Control serum Blood-bank to linear peptides of the protein M of SARS-CoV Urbani / Binding of Control serum LUMC to looped peptides of the protein M of SARS-CoV Urbani / Binding of Control Serum Blood-Bank to Looped peptides of the protein M of SARS-CoV Urbani: unit not given here
[4] = test system: recombinant human anti-SARS-CoV antibody 03-018; assay type: binding; design: Binding of antibody 03-018 to linear peptides of the N protein of SARS-CoV Urbani / Binding of antibody 03-018 to looped/cyclic peptides of the N protein of SARS-CoV Urbani: unit not given here

ELSPRWYFYYLGTGP
Binding of serum 1a to linear peptides of protein N of SARS-CoV Urbani [1]: 0.2
Binding of serum 1a to looped/cyclic peptides of protein N of SARS-CoV Urbani [1]: 0.3
Binding of serum 1b to linear peptides of protein N of SARS-CoV Urbani [1]: 0.2
Binding of serum 1b to looped/cyclic peptides of protein N of SARS-CoV Urbani [1]: 0.2
Binding of serum 2 to linear peptides of protein N of SARS-CoV Urbani [1]: 0.3
Binding of serum 2 to looped/cyclic peptides of protein N of SARS-CoV Urbani [1]: 0.4
Binding of serum 6 to linear peptides of protein N of SARS-CoV Urbani [1]: 0.2
Binding of serum 6 to looped/cyclic peptides of protein N of SARS-CoV Urbani [1]: 0.2
Binding of serum 37 to linear peptides of protein N of SARS-CoV Urbani [1]: 0.8
Binding of serum 37 to looped/cyclic peptides of protein N of SARS-CoV Urbani [1]: 0.8
Binding of serum 62 to linear peptides of protein N of SARS-CoV Urbani [1]: 0.7
Binding of serum 62 to looped/cyclic peptides of protein N of SARS-CoV Urbani [1]: 0.7
Binding of serum London to linear peptides of protein N of SARS-CoV Urbani [1]: 0.5
Binding of serum London to looped/cyclic peptides of protein N of SARS-CoV Urbani [1]: 0.4
Binding of serum SARS-green to linear peptides of protein N of SARS-CoV Urbani [1]: 0.4
Binding of serum SARS-green to looped/cyclic peptides of protein N of SARS-CoV Urbani [1]: 0.3
Binding of serum SARS-yellow to linear peptides of protein N of SARS-CoV Urbani [1]: 0.7
Binding of serum SARS-yellow to looped/cyclic peptides of protein N of SARS-CoV Urbani [1]: 0.5
Binding of a rabbit serum to linear peptides of protein N of SARS-CoV Urbani (Rabbit serum linear peptides) [2]: 0.1
Binding of a rabbit serum to looped/cyclic peptides of protein N of SARS-CoV Urbani (Rabbit serum looped peptides) [2]: 0.4
Binding of Control Serum Blood-Bank to Looped peptides [3]: 0.7
Binding of Control serum Blood-bank to linear peptides [3]: 0.6
Binding of Control serum LUMC to linear peptides [3]: 0.5
Binding of Control serum LUMC to looped peptides [3]: 0.5
Binding of antibody 03-018 to linear peptides of the N protein of SARS-CoV Urbani [4]: 0.1
Binding of antibody 03-018 to looped/cyclic peptides of the N protein of SARS-CoV Urbani [4]: 0.2

TRNPNNNAATVLQLP
Binding of serum 1a to linear peptides of protein N of SARS-CoV Urbani [1]: 0.3
Binding of serum 1a to looped/cyclic peptides of protein N of SARS-CoV Urbani [1]: 0.4
Binding of serum 1b to linear peptides of protein N of SARS-CoV Urbani [1]: 0.1
Binding of serum 1b to looped/cyclic peptides of protein N of SARS-CoV Urbani [1]: 0.3
Binding of serum 2 to linear peptides of protein N of SARS-CoV Urbani [1]: 0.3
Binding of serum 2 to looped/cyclic peptides of protein N of SARS-CoV Urbani [1]: 0.7
Binding of serum 6 to linear peptides of protein N of SARS-CoV Urbani [1]: 0.2
Binding of serum 6 to looped/cyclic peptides of protein N of SARS-CoV Urbani [1]: 0.3
Binding of serum 37 to linear peptides of protein N of SARS-CoV Urbani [1]: 0.6
Binding of serum 37 to looped/cyclic peptides of protein N of SARS-CoV Urbani [1]: 0.6
Binding of serum 62 to linear peptides of protein N of SARS-CoV Urbani [1]: 0.7
Binding of serum 62 to looped/cyclic peptides of protein N of SARS-CoV Urbani [1]: 0.5
Binding of serum London to linear peptides of protein N of SARS-CoV Urbani [1]: 0.5
Binding of serum London to looped/cyclic peptides of protein N of SARS-CoV Urbani [1]: 0.5
Binding of serum SARS-green to linear peptides of protein N of SARS-CoV Urbani [1]: 0.3
Binding of serum SARS-green to looped/cyclic peptides of protein N of SARS-CoV Urbani [1]: 0.8
Binding of serum SARS-yellow to linear peptides of protein N of SARS-CoV Urbani [1]: 0.7
Binding of serum SARS-yellow to looped/cyclic peptides of protein N of SARS-CoV Urbani [1]: 0.5
Binding of a rabbit serum to linear peptides of protein N of SARS-CoV Urbani (Rabbit serum linear peptides) [2]: 0.1
Binding of a rabbit serum to looped/cyclic peptides of protein N of SARS-CoV Urbani (Rabbit serum looped peptides) [2]: 0.5
Binding of Control Serum Blood-Bank to Looped peptides [3]: 0.8
Binding of Control serum Blood-bank to linear peptides [3]: 0.7
Binding of Control serum LUMC to linear peptides [3]: 0.8
Binding of Control serum LUMC to looped peptides [3]: 0.7
Binding of antibody 03-018 to linear peptides of the N protein of SARS-CoV Urbani [4]: 0.1
Binding of antibody 03-018 to looped/cyclic peptides of the N protein of SARS-CoV Urbani [4]: 0.2
